The record followed here is ChEMBL document CHEMBL4665657, “2-Phenyl-8-(1-phenylallyl)-chromenone compounds have a pan-PPAR modulator pharmacophore” (Bioorg Med Chem, 2019).

In series [1] the test system is BMMSC. Briefly: Induction of adipogenesis in human BMMSC cells assessed as increase in HMGCR mRNA at 1 uM incubated for 3 days by qRT-PCR analysis. The class given is functional, cell-based. Particulars: time 3.0 day.
For series [2], the system named is BMMSC. The series can be described thus: Induction of adipogenesis in human BMMSC cells assessed as increase in ANGPTL4 mRNA at 1 uM incubated for 3 days by qRT-PCR analysis. It counts as functional, cell-based. Particulars: time 3.0 day.
In series [3] the test system is BMMSC. Briefly: Induction of adipogenesis in human BMMSC cells assessed as increase in ACACB mRNA at 1 uM incubated for 3 days by qRT-PCR analysis. The class given is functional, cell-based. Particulars: time 3.0 day.
Series [4] has as its system BMMSC. Briefly: Induction of adipogenesis in human BMMSC cells assessed as increase in ACOX1 mRNA at 1 uM incubated for 3 days by qRT-PCR analysis. The note with it: time 3.0 day. The class given is functional, cell-based.
The subject of series [5] is BMMSC. The series can be described thus: Induction of adipogenesis in human BMMSC cells assessed as increase in HMGCS2 mRNA at 1 uM incubated for 3 days by qRT-PCR analysis. Particulars: time 3.0 day. The class given is functional, cell-based.
The subject of series [6] is BMMSC. The series can be described thus: Induction of adipogenesis in human BMMSC cells assessed as increase in adiponectin secretion at 10 uM incubated for 5 days by ELISA. The class given is functional, cell-based. Particulars: time 5.0 day.
In series [7] the test system is BMMSC. The series can be described thus: Induction of adipogenesis in human BMMSC cells assessed as lipid droplet formation at 10 uM incubated for 5 days by oil red O staining based inverted microscopy analysis. It counts as functional, cell-based. Particulars: time 5.0 day.
Series [8] concerns BMMSC. The series can be described thus: Induction of adipogenesis in human BMMSC cells assessed as increase in adiponectin secretion incubated for 5 days by ELISA. It counts as functional, cell-based. The note with it: time 5.0 day.
Series [9] can be described thus: Cytotoxicity against human BM-MSC cells assessed as cell viability at 100 uM incubated for 72 hrs by WST-8 assay. It counts as cell-based, BMMSC. Particulars: read-out: Activity.
Series [10] deals with T1, Peroxisome proliferator-activated receptor delta (Homo sapiens, UniProt Q03181).
T1 sequence (Q03181 whole entry): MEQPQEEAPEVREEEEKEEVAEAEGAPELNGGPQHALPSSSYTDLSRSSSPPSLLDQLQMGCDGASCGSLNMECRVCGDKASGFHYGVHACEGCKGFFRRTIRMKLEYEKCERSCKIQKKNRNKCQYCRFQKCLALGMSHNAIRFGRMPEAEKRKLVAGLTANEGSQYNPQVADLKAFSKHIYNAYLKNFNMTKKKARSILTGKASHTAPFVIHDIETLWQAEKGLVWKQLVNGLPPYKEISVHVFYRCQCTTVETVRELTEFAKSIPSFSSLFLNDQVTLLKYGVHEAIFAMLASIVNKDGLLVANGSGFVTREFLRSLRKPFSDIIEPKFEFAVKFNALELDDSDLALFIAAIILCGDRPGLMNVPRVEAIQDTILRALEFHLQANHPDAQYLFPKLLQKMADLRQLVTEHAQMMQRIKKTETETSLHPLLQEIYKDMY
The series can be described thus: Binding affinity to PPARdelta (unknown origin) by TR-FRET assay.

For a further series, the system named is A549. Briefly: Cytotoxicity against human A549 cells assessed as reduction in cell viability incubated for 72 hrs by WST-8 assay. It counts as functional, cell-based. Particulars: A549, 72 h.
The target in series [11] is T2, Peroxisome proliferator-activated receptor alpha (Homo sapiens, UniProt Q07869).
T2 sequence (Q07869 whole entry): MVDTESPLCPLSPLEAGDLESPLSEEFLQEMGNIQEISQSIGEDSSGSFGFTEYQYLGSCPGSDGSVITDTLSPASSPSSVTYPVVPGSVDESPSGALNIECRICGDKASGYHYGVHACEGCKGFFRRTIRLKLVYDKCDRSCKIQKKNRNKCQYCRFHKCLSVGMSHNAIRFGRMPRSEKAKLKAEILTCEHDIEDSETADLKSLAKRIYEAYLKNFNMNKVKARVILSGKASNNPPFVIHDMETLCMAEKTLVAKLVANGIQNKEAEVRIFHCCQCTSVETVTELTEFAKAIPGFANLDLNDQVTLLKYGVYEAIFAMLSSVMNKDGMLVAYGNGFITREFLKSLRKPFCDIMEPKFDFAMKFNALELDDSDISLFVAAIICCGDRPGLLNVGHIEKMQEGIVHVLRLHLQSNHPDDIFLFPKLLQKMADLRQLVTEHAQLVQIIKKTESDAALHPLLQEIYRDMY
The series can be described thus: Binding affinity to PPARalpha (unknown origin) by TR-FRET assay.

The next series relates to PC-3. The series can be described thus: Cytotoxicity against human PC-3 cells assessed as reduction in cell viability incubated for 72 hrs by WST-8 assay. Particulars: PC-3, 72 h. The class given is functional, cell-based.
Series [12] addresses T3, Peroxisome proliferator-activated receptor gamma (Homo sapiens, UniProt P37231).
T3 sequence (P37231 whole entry): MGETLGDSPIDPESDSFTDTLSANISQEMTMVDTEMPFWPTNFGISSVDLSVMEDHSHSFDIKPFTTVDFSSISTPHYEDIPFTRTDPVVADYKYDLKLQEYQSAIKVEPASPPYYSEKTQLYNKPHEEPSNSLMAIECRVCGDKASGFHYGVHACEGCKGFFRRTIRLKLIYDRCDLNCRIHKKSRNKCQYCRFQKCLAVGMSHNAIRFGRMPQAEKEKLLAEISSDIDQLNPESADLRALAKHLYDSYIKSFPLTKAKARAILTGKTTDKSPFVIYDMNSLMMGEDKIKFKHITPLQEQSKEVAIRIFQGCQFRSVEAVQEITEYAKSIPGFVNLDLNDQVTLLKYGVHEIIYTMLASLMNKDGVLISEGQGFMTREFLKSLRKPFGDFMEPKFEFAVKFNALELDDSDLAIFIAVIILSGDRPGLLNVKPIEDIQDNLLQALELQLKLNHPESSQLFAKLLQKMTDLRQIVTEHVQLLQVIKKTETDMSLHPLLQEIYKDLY
Briefly: Binding affinity to PPARgamma (unknown origin) by TR-FRET assay.

Series [13] deals with BMMSC. The series can be described thus: Induction of adipogenesis in human BMMSC cells assessed as increase in ACOX1 mRNA at 10 uM incubated for 3 days by qRT-PCR analysis. It counts as functional, cell-based. Particulars: time 3.0 day.
For series [14], the system named is BMMSC. Briefly: Induction of adipogenesis in human BMMSC cells assessed as increase in HMGCR mRNA at 10 uM incubated for 3 days by qRT-PCR analysis. Particulars: time 3.0 day. It counts as functional, cell-based.
For series [15], the system named is BMMSC. The series can be described thus: Induction of adipogenesis in human BMMSC cells assessed as increase in ACACB mRNA at 10 uM incubated for 3 days by qRT-PCR analysis. It counts as functional, cell-based. Particulars: time 3.0 day.
In series [16] the test system is BMMSC. The series can be described thus: Induction of adipogenesis in human BMMSC cells assessed as increase in HMGCS2 mRNA at 10 uM incubated for 3 days by qRT-PCR analysis. It counts as functional, cell-based. Particulars: time 3.0 day.

SMILES strings stand for the structures. Active and inactive are the calls of the source. No cut-off for these calls is given here.

As to `CCc1ccc(CCOc2ccc(CC3SC(=O)NC3=O)cc2)nc1` (configuration not stated), the outcome in the series with BMMSC [1], in the series on BMMSC [2] and in the series on BMMSC [3] was Active. Besides, the result in the series on BMMSC [4] and in the series on BMMSC [5] was inactive.

As to `C=CC(c1ccc(OC)c(OC)c1)c1c(O)cc(O)c2c(=O)cc(-c3ccccc3)oc12` (configuration not stated), the result in the series with BMMSC [6] was Active.

`C=CC(c1ccc(OC)cc1)c1c(O)cc(O)c2c(=O)cc(-c3ccccc3)oc12` (configuration not stated): the result in the series on BMMSC [6] and in the series with BMMSC [7] was Active. In addition, the Activity result in the series with BMMSC [8] is “Dose-dependent effect”.

`C=CC(c1ccc(O)c(OC)c1)c1c(O)cc(O)c2c(=O)cc(-c3ccccc3)oc12` (configuration not stated): the viability at 72 h, 100 µM in series [9] is 57%. Besides, the values for the Ki in series [10], in series [11] and in series [12] were 2480 nM, 2410 nM and 2530 nM, respectively. The half-inhibitory concentration (IC50) was found to be 55500 nM in the series on A549 and 30600 nM in the series with PC-3. Also, the outcome in the series with BMMSC [6] and in the series on BMMSC [7] was Active. In the series with BMMSC [8], the Activity entry was “Dose-dependent effect”.

With `Cc1cc(SCc2sc(-c3ccc(C(F)(F)F)cc3)nc2C)ccc1OCC(=O)O`, the result in the series on BMMSC [1], in the series with BMMSC [2] and in the series with BMMSC [3] was Active. In addition, the result in the series with BMMSC [4] and in the series on BMMSC [5] was inactive.

In the case of `Cc1cccc(Nc2cc(Cl)nc(SCC(=O)O)n2)c1C`, the result with BMMSC [13], with BMMSC [14], in the series with BMMSC [15] and with BMMSC [16] was Active.
